From ChEMBL document CHEMBL5120859, “Optimization of 4-arylthiophene-3-carboxylic acid derivatives as inhibitors of ANO1: Lead optimization studies toward their analgesic efficacy for inflammatory pain” (Eur J Med Chem, 2022)
Calls of active or inactive are those of the source. No cut-off for these calls is given here.

Assays:
[1] = AUC (0 to t) in C57BL/6 mouse at 40 mg/kg,IG measured upto 24 hrs by HPLC-MS/MS analysis; type: ADME, organism-based; set-up: dose 40 mg/kg, time < 24 hrs, route ig; conditions: in vivo, po
[2] = Ratio of drug concentration in brain to plasma in C57BL/6 mouse at 40 mg/kg,IG measured after 0.25 hrs by HPLC analysis; type: ADME, organism-based; conditions: po
[3] = Clearance in C57BL/6 mouse at 40 mg/kg,iv measured upto 24 hrs by HPLC-MS/MS analysis; type: ADME, organism-based; conditions: in vivo
[4] = Bioavailability in C57BL/6 mouse at 80 mg/kg,IG measured upto 24 hrs by HPLC-MS/MS analysis; type: ADME, organism-based; conditions: in vivo, po
[5] = Acute toxicity in C57BL/6 mouse assessed as animal survival at 1000 mg/kg,po measured after 24 hrs; type: organism-based; conditions: in vivo
Mus musculus [6] = assay: Analgesic activity in C57BL/6 mouse model of formalin-induced allodynia assessed as reduction on foot licking pain response at 40 to 80 mg/kg,po measured after 10 mins; type: functional, organism-based; conditions: dose 40-80 mg/kg
[7] = Cmax in C57BL/6 mouse at 80 mg/kg,IG measured upto 24 hrs by HPLC-MS/MS analysis; type: ADME, organism-based; set-up: dose 80 mg/kg, time < 24 hrs, route ig; conditions: in vivo, po
[8] = biological target: Voltage-gated inwardly rectifying potassium channel KCNH2 (Homo sapiens, UniProt Q12809); assay: Cardiotoxicity against human ERG expressed in HEK293 cells by patch clamp assay; type: toxicity, cell-based
[9] = Brain concentration in C57BL/6 mouse at 40 mg/kg,IG measured after 6 hrs by HPLC analysis; type: ADME, organism-based; conditions: po, read-out: Ct
[10] = biological target: Voltage-dependent N-type calcium channel subunit alpha-1B (Homo sapiens) (UniProt Q00975); assay: Inhibition of Cav2.2 (unknown origin) at a holding potential +10 mV at 30 uM by whole cell patch clamp electrophysiology relative to control
Mus musculus [11] = assay: Analgesic activity in C57BL/6 mouse model of CFA-induced mechanical hyperalgesia assessed as […] at 40 to 80 mg/kg,po measured after 7 days by Von Frey test; type: functional, organism-based; conditions: dose 40-80 mg/kg, time 7.0 day
[12] = biological target: Sodium channel protein type 7 subunit alpha (Homo sapiens) (UniProt Q01118); assay: Inhibition of Nav1.7 (unknown origin) in half-inactivated condition at 30 uM by whole cell patch clamp electrophysiology relative to control
[13] = Plasma concentration in C57BL/6 mouse at 40 mg/kg,IG measured after 24 hrs by HPLC analysis; type: ADME, organism-based; conditions: po
[14] = biological target: Sodium channel protein type 7 subunit alpha (Homo sapiens) (UniProt Q01118); assay: Inhibition of Nav1.7 (unknown origin) in resting condition at 30 uM by whole cell patch clamp electrophysiology relative to control
[15] = Brain concentration in C57BL/6 mouse at 40 mg/kg,IG measured after 24 hrs by HPLC analysis; type: ADME, organism-based; conditions: po, read-out: Ct
[16] = Tmax in C57BL/6 mouse at 80 mg/kg,IG measured upto 24 hrs by HPLC-MS/MS analysis; type: ADME, organism-based; conditions: in vivo, po
[17] = MRT (0 to t) in C57BL/6 mouse at 80 mg/kg,IG measured upto 24 hrs by HPLC-MS/MS analysis; type: ADME, organism-based; conditions: in vivo, po
[18] = Tmax in C57BL/6 mouse at 40 mg/kg,iv measured upto 24 hrs by HPLC-MS/MS analysis; type: ADME, organism-based; conditions: in vivo
[19] = biological target: Transient receptor potential cation channel subfamily V member 1 (Homo sapiens) (UniProt Q8NER1); assay: Inhibition of TRPV1 (unknown origin) at a holding potential +100 mV at 30 uM by whole cell patch clamp electrophysiology relative to control
[20] = Brain concentration in C57BL/6 mouse at 40 mg/kg,IG measured after 0.25 hrs by HPLC analysis; type: ADME, organism-based; conditions: po, read-out: Ct
[21] = biological target: T1, Anoctamin-2 (Homo sapiens) (UniProt Q9NQ90); assay: Inhibition of human ANO2 expressed in HEK293 cells at 30 uM incubated for 5 mins by whole cell patch clamp electrophysiology relative to control; type: cell-based
T1 sequence (whole entry): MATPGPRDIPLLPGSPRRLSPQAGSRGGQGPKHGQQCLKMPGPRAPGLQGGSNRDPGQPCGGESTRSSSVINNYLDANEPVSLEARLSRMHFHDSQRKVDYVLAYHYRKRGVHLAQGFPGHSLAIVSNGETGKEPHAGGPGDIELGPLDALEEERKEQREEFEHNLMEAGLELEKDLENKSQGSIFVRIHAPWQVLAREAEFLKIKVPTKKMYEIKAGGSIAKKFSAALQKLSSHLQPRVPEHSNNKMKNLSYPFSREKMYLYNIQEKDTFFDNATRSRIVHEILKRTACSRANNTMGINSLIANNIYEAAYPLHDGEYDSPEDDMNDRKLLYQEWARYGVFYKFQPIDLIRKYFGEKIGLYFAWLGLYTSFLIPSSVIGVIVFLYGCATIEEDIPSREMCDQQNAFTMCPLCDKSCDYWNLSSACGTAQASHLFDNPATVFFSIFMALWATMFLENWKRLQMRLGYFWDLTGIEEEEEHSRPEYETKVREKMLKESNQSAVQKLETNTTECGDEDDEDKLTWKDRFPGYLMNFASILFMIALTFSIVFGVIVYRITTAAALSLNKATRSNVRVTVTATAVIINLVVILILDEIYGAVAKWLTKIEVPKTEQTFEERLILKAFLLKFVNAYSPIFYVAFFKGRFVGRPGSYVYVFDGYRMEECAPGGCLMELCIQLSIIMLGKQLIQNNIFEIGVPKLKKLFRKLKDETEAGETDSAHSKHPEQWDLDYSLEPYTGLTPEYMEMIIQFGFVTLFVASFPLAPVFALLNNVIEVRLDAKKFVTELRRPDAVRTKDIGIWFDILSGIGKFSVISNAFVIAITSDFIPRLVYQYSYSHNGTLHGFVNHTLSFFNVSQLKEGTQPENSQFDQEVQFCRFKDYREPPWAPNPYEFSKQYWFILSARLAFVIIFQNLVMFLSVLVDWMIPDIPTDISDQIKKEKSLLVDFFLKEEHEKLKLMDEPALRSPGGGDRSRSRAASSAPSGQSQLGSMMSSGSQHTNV

Mus musculus [22] = assay: Analgesic activity in C57BL/6 mouse model of formalin-induced allodynia assessed as reduction on foot licking pain response at 40 to 80 mg/kg,po measured at 15 to 60 mins; type: functional, organism-based; conditions: dose 40-80 mg/kg, time 15-60 min, DDE = dose-dependent effect
[23] = Ratio of drug concentration in brain to plasma in C57BL/6 mouse at 40 mg/kg,IG measured after 24 hrs by HPLC analysis; type: ADME, organism-based; conditions: po
[24] = Toxicity in C57BL/6 mouse model of capsaicin-induced allodynia assessed as increase in body temperature at 40 to 80 mg/kg,po; type: organism-based; conditions: in vivo, dose 40-80 mg/kg
Mus musculus [25] = assay: Analgesic activity in C57BL/6 mouse model of CFA-induced mechanical hyperalgesia assessed as […] at 40 to 80 mg/kg,po measured after 12 hrs by Von Frey test; type: functional, organism-based; conditions: dose 40-80 mg/kg
[26] = AUC (0 to t) in C57BL/6 mouse at 80 mg/kg,IG measured upto 24 hrs by HPLC-MS/MS analysis; type: ADME, organism-based; set-up: dose 80 mg/kg, time < 24 hrs, route ig; conditions: in vivo, po

Chain of Sodium channel protein type 7 subunit alpha (Homo sapiens) (Q01118 whole entry): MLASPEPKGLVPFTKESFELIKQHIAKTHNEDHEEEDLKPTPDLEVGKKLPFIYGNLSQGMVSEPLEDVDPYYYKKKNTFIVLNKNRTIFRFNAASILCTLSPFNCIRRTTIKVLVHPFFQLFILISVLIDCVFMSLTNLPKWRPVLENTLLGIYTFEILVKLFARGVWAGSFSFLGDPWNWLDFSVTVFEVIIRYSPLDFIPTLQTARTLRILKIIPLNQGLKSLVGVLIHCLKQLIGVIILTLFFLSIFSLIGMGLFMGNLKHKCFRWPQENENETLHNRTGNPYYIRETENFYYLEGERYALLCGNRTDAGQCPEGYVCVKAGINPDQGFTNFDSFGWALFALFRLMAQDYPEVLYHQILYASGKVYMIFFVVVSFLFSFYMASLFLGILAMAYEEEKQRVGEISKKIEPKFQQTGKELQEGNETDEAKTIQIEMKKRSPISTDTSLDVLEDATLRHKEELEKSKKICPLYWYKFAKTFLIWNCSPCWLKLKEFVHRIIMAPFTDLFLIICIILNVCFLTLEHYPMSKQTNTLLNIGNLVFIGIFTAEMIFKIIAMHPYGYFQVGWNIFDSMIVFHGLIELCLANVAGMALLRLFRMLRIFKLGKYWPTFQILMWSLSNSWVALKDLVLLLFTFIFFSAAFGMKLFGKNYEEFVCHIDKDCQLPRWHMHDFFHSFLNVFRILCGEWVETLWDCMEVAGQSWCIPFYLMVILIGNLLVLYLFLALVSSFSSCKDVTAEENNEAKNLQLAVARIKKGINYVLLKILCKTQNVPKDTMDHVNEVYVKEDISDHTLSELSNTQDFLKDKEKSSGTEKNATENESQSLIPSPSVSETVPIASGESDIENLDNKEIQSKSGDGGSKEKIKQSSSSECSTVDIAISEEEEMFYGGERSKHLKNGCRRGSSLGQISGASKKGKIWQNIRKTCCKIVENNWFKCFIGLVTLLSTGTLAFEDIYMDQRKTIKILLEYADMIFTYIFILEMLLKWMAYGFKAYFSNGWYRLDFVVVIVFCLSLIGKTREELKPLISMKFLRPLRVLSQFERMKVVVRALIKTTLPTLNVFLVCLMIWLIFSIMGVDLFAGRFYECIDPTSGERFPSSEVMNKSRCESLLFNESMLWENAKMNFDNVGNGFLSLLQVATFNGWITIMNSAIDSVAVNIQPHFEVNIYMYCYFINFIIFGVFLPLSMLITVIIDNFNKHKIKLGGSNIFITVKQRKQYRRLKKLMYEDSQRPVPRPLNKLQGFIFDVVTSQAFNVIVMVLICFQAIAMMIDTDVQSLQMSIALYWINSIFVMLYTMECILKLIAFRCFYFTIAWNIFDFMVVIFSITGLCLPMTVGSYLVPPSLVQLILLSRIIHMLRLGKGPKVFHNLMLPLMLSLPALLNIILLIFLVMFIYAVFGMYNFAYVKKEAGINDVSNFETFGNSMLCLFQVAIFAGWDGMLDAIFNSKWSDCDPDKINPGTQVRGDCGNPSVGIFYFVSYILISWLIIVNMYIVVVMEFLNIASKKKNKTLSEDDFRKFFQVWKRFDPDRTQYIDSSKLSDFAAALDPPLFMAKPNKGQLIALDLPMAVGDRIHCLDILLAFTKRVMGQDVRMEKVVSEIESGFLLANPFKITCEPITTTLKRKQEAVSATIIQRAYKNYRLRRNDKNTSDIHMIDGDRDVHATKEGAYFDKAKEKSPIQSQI
Chain of Voltage-gated inwardly rectifying potassium channel KCNH2 (Q12809 whole entry): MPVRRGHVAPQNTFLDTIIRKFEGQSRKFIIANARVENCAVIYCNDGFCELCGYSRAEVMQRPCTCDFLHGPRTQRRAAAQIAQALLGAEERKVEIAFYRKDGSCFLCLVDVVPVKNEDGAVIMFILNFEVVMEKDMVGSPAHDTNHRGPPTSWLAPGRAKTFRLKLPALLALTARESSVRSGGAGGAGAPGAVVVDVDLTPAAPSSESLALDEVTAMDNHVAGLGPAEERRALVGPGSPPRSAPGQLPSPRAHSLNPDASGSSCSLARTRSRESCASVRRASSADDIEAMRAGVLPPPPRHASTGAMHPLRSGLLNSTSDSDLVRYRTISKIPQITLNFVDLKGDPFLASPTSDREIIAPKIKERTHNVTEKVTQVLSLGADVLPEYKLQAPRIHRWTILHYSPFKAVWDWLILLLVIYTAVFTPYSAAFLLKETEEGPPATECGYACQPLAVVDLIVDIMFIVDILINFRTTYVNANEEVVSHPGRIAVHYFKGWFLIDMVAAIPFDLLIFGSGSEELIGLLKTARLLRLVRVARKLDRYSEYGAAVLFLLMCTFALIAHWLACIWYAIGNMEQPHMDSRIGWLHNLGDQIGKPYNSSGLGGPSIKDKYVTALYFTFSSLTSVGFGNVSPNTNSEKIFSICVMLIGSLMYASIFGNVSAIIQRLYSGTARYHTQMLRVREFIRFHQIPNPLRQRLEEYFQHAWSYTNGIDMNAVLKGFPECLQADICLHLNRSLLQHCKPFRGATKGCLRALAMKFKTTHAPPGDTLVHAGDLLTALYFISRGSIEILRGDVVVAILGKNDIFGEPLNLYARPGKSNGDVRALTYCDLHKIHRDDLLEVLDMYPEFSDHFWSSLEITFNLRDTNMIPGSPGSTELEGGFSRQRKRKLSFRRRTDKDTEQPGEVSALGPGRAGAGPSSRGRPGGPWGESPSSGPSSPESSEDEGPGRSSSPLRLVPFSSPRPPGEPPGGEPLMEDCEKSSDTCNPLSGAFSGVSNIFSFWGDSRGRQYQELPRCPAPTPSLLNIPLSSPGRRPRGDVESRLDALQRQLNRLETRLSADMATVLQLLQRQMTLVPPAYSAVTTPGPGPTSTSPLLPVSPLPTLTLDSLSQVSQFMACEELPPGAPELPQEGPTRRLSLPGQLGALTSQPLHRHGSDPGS
Chain of Voltage-dependent N-type calcium channel subunit alpha-1B (Homo sapiens) (Q00975 whole entry, looked up): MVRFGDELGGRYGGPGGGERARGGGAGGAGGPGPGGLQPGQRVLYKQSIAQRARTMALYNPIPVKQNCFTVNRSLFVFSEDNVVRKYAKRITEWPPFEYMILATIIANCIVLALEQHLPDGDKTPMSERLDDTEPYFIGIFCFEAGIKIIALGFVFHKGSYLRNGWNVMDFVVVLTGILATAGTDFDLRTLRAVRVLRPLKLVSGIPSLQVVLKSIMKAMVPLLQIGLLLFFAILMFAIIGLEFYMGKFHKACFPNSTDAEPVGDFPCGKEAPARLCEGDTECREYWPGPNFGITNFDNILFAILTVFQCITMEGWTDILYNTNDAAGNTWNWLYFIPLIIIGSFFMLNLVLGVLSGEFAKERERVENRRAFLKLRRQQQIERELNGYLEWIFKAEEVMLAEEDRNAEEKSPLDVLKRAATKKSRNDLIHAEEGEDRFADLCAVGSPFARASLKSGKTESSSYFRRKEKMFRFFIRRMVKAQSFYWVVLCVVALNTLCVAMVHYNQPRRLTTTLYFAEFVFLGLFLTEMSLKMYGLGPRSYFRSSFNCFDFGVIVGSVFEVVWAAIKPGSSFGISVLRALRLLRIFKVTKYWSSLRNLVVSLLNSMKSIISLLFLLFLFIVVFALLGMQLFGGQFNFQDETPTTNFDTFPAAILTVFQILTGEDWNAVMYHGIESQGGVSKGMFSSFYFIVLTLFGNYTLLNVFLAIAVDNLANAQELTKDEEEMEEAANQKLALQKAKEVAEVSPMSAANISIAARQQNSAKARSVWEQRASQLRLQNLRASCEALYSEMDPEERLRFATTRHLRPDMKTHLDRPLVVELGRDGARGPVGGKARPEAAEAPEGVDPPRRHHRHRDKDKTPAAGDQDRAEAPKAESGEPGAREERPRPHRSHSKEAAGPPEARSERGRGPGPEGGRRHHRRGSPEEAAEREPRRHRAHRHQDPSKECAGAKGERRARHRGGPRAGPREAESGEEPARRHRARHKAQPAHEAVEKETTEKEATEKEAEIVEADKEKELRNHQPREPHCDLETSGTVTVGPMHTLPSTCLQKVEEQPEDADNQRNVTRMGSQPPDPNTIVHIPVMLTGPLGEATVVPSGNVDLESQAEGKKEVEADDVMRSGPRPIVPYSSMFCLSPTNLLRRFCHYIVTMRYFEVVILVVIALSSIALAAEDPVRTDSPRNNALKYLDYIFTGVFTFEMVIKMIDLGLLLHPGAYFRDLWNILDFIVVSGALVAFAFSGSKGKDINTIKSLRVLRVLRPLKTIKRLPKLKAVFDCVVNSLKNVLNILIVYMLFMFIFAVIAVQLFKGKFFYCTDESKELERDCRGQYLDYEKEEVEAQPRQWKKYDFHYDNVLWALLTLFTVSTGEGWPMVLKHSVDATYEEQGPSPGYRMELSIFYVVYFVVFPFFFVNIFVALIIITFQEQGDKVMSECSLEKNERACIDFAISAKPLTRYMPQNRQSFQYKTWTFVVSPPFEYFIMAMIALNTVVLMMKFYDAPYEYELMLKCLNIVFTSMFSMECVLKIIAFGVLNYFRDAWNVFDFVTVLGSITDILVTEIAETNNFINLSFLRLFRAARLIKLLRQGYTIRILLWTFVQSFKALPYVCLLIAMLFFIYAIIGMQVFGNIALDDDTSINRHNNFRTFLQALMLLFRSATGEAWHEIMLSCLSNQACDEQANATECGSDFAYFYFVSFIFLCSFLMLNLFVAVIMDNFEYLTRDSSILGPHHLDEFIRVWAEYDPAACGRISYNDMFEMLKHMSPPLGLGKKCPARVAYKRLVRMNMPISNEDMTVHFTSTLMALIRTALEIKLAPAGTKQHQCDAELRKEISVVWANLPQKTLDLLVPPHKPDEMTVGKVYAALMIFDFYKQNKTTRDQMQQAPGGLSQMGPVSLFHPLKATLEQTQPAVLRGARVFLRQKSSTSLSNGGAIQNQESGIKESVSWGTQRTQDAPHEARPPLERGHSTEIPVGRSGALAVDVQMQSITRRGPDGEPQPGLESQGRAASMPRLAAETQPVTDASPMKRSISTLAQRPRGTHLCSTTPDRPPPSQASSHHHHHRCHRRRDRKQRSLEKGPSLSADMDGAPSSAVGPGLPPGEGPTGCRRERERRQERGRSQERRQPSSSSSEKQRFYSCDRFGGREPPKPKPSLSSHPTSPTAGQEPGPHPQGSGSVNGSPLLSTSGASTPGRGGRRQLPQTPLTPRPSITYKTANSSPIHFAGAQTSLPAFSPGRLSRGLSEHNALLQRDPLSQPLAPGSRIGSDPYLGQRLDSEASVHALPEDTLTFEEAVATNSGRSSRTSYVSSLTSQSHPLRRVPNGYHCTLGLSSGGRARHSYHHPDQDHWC

Q: With `O=C(Nc1scc(-c2ccc(Cl)cc2)c1C(=O)O)c1cc(F)ccc1F` as the compound, how does the AUC(0-t) at 24 h [1] read?
A: 265 µg·h/mL

Q: And the Ratio [2]?
A: 1.5%

Q: What about the clearance [3] of the same compound?
A: 1.73 mL/min/kg

Q: What about the bioavailability [4] of the same compound?
A: 85.1%

Q: And the Activity [5]?
A: Non-Toxic

Q: And the Activity (Mus musculus [6])?
A: Active

Q: And the Cmax [7]?
A: 130 µg/mL

Q: What about the IC50 [8] of the same compound?
A: > 30 µM

Q: What about the concentration at 6 h [9] of the same compound?
A: 337 ng/g

Q: And the inhibition [10]?
A: 32%

Q: And the Activity (Mus musculus [11])?
A: Active

Q: And the inhibition [12]?
A: 6.5%

Q: And the concentration at 24 h [13]?
A: 1.67 µg/mL

Q: What about the inhibition [14] of the same compound?
A: 4.4%

Q: And the concentration at 24 h [15]?
A: 74.8 ng/g

Q: What about the Tmax [16] of the same compound?
A: 10.2 min

Q: And the MRT last at 24 h [17]?
A: 456 min

Q: And the Tmax [18]?
A: 4.8 min

Q: And the inhibition [19]?
A: 17%

Q: And the concentration at 0.25 h [20]?
A: 1440 ng/g

Q: What about the inhibition [21] of the same compound?
A: 72.8%

Q: What about the Activity (Mus musculus [22]) of the same compound?
A: Dde

Q: What about the Ratio [23] of the same compound?
A: 4.5%

Q: What about the Activity [24] of the same compound?
A: Non-Toxic

Q: And the Activity (Mus musculus [25])?
A: Active

Q: And the AUC(0-t) at 24 h [26]?
A: 596 µg·h/mL
